pIC50: −log10 of the molar value. Active and inactive are the calls of the source. No cut-off for these calls is given here.
Assays:
[1] = Antiproliferative activity against human Intestinal epithelial cell assessed as inhibition of cell growth incubated for 48 hrs by MTT assay; format: toxicity, cell-based; conditions: human intestinal epithelial cells
[2] = biological target: Fibroblast growth factor receptor 1 (Homo sapiens, UniProt P11362); assay: Inhibition of FGFR1 (unknown origin) kinase activity
Chain of Fibroblast growth factor receptor 1 (P11362 whole entry): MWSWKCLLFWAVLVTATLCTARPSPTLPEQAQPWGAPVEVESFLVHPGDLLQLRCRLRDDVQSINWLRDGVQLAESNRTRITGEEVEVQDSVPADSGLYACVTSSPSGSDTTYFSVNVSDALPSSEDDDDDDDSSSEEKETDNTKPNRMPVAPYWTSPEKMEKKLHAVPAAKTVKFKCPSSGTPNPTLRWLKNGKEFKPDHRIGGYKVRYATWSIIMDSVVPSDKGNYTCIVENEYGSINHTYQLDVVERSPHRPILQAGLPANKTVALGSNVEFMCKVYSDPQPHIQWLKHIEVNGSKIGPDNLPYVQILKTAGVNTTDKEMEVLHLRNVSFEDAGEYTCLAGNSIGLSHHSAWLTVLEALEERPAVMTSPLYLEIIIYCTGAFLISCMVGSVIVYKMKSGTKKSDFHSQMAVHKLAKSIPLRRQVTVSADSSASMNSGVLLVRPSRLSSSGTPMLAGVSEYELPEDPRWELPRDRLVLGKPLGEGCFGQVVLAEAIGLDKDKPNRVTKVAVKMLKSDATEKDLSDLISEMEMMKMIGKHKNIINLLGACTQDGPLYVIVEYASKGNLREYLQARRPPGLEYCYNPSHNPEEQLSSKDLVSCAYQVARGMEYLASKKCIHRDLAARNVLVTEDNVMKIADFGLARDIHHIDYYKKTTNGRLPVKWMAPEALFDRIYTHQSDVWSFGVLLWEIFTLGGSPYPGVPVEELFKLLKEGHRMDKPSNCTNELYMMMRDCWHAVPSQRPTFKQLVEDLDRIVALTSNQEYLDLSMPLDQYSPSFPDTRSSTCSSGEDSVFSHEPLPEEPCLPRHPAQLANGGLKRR

[3] = biological target: Fibroblast growth factor receptor 2 (Homo sapiens, UniProt P21802); assay: Inhibition of FGFR2 (unknown origin) kinase activity
Chain of Fibroblast growth factor receptor 2 (P21802 whole entry): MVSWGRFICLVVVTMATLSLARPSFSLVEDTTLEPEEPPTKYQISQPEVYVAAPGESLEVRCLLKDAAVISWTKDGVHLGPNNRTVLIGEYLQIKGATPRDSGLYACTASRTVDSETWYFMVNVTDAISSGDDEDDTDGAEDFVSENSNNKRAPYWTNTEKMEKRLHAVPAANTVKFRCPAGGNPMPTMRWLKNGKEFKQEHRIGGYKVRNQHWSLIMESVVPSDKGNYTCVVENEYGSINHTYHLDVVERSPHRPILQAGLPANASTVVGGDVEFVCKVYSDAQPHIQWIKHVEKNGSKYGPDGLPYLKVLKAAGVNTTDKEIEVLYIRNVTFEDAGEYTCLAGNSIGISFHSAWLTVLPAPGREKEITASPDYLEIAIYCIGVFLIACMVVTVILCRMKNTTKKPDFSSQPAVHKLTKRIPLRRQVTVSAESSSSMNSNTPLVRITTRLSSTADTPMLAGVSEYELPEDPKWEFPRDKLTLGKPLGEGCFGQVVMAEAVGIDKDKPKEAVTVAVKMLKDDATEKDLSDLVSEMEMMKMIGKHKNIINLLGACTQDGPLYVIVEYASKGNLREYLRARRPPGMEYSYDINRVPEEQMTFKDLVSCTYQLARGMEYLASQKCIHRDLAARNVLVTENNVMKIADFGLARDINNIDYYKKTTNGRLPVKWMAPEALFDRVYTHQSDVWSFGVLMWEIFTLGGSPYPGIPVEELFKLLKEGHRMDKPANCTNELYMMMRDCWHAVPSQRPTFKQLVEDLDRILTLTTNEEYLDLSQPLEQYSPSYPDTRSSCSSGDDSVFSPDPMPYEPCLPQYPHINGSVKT

[4] = biological target: Fibroblast growth factor receptor 3 (Homo sapiens, UniProt P22607); assay: Inhibition of FGFR3 (unknown origin) kinase activity
Chain of Fibroblast growth factor receptor 3 (P22607 whole entry): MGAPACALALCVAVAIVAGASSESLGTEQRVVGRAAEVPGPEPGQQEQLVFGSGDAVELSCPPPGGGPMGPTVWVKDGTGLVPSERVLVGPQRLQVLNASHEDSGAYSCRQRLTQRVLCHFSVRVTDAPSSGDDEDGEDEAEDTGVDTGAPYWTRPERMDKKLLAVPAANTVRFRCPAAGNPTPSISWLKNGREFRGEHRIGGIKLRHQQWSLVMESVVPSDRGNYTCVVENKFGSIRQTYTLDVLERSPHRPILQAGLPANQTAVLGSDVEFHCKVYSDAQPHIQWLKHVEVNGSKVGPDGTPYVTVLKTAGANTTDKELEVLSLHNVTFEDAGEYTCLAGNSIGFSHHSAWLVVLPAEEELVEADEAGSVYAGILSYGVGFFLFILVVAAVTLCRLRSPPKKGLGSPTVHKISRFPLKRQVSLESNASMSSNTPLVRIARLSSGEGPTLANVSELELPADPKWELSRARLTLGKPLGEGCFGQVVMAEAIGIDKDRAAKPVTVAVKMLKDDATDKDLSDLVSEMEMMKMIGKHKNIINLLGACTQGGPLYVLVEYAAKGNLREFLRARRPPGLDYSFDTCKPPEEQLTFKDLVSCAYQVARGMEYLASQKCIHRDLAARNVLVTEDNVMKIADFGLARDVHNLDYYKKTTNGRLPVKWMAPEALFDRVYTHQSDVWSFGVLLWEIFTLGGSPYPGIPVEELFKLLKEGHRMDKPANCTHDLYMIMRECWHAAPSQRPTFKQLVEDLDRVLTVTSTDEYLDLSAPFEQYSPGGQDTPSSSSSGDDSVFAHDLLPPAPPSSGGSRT

SW480 [5] = assay: Antiproliferative activity against human SW480 cells assessed as inhibition of colony formation incubated for 2 weeks by crystal violet staining method; format: functional, cell-based
RKO [6] = assay: Antiproliferative activity against human RKO cells assessed as inhibition of colony formation incubated for 2 weeks by crystal violet staining method; format: functional, cell-based
HCT-116 [7] = assay: Induction of cell cycle arrest in human HCT-116 cells assessed as downregulation of cyclin B1 expression at 1.5 to 6 uM by immunoblotting analysis; format: functional, cell-based; conditions: dose 1.5-6 µM
HCT-116 [8] = assay: Induction of cell cycle arrest in human HCT-116 cells assessed as downregulation of CDC2 expression at 1.5 to 6 uM by immunoblotting analysis; format: functional, cell-based; conditions: dose 1.5-6 µM
SW480 [9] = assay: Induction of cell cycle arrest in human SW480 cells assessed as downregulation of CDC2 expression at 1.5 to 6 uM by immunoblotting analysis; format: functional, cell-based; conditions: dose 1.5-6 µM
RKO [10] = assay: Induction of cell cycle arrest in human RKO cells assessed as downregulation of cyclin B1 expression at 1.5 to 6 uM by immunoblotting analysis; format: functional, cell-based; conditions: dose 1.5-6 µM
RKO [11] = assay: Induction of cell cycle arrest in human RKO cells assessed as downregulation of CDC2 expression at 1.5 to 6 uM by immunoblotting analysis; format: functional, cell-based; conditions: dose 1.5-6 µM
HCT-116 [12] = assay: Induction of apoptosis in human HCT-116 cells at 3 to 12 uM incubated for 48 hrs by Annexin V-FITC/PI staining based flow cytometric analysis relative to control; format: functional; conditions: dose 3-12 µM
HCT-116 [13] = assay: Anti-migration activity in human HCT-116 cells assessed as upregulation of E-cad expression by Western blotting analysis; format: functional, cell-based
HCT-116 [14] = assay: Anti-migration activity in human HCT-116 cells assessed as change in N-cad expression at 3 to 12 uM by Western blotting analysis; format: functional, cell-based; conditions: dose 3-12 µM
HCT-116 [15] = assay: Anti-migration activity in human HCT-116 cells assessed as change in FAK expression at 3 to 12 uM by Western blotting analysis; format: functional, cell-based; conditions: dose 3-12 µM
SW480 [16] = assay: Anti-migration activity in human SW480 cells assessed as change in N-cad expression at 3 to 12 uM by Western blotting analysis; format: functional, cell-based; conditions: dose 3-12 µM
RKO [17] = assay: Anti-migration activity in human RKO cells assessed as loss of actin cytoskeletal fibers at 3 to 12 uM by immunofluorescence assay; format: functional, cell-based; conditions: dose 3-12 µM
RKO [18] = assay: Anti-migration activity in human RKO cells assessed as change in FAK expression at 3 to 12 uM by Western blotting analysis; format: functional, cell-based; conditions: dose 3-12 µM
[19] = Toxicity in ICR mouse assessed as change in body weight at 60 mg/kg,po administrated for 1 week; format: organism-based; conditions: in vivo, 168 h, time 1 weeks
[20] = Toxicity in ICR mouse assessed as change in lung weight at 20 mg/kg,po administrated for 1 week; format: organism-based; conditions: in vivo, 168 h, time 1 weeks
[21] = Toxicity in ICR mouse assessed as change in lung weight at 60 mg/kg,po administrated for 1 week; format: organism-based; conditions: in vivo, 168 h, time 1 weeks
[22] = Hepatotoxicity in ICR mouse assessed as change in serum creatinine level at 60 mg/kg,po administrated for 1 week; format: toxicity, organism-based; conditions: in vivo, 168 h, time 1 weeks
[23] = Hepatotoxicity in ICR mouse assessed as change in serum AST level at 20 mg/kg,po administrated for 1 week; format: toxicity, organism-based; conditions: in vivo, 168 h, time 1 weeks
[24] = Toxicity in ICR mouse assessed as histopathological change in liver at 20 mg/kg,po administrated for 1 week by hematoxylin and eosin staining analysis; format: organism-based; conditions: in vivo, 168 h, time 1 weeks
[25] = Toxicity in ICR mouse assessed as histopathological change in liver at 60 mg/kg,po administrated for 1 week by hematoxylin and eosin staining analysis; format: organism-based; conditions: in vivo, 168 h, time 1 weeks
[26] = Toxicity in ICR mouse assessed as histopathological change in kidney at 60 mg/kg,po administrated for 1 week by hematoxylin and eosin staining analysis; format: organism-based; conditions: in vivo, 168 h, time 1 weeks
[27] = Toxicity in BALB/c mouse xenografted with human HCT-116 cells assessed as change in body weight at 20 mg/kg,ip administrated for 2 weeks; format: organism-based; conditions: in vivo, 336 h
[28] = Toxicity in BALB/c mouse xenografted with human HCT-116 cells assessed as change in heart weight at 20 mg/kg,ip administrated for 2 weeks; format: organism-based; conditions: in vivo, 336 h
[29] = Toxicity in BALB/c mouse xenografted with human HCT-116 cells assessed as change in liver weight at 20 mg/kg,ip administrated for 2 weeks; format: organism-based; conditions: in vivo, 336 h
[30] = Toxicity in BALB/c mouse xenografted with human HCT-116 cells assessed as change in spleen weight at 10 mg/kg,ip administrated for 2 weeks; format: organism-based; conditions: in vivo, 336 h
[31] = Toxicity in BALB/c mouse xenografted with human HCT-116 cells assessed as histopathological change in kidney at 20 mg/kg,ip administrated for 2 weeks by hematoxylin and eosin staining based analysis; format: organism-based; conditions: in vivo, 336 h
[32] = Toxicity in BALB/c mouse xenografted with human HCT-116 cells assessed as change in serum AST level at 10 mg/kg,ip administrated for 2 weeks; format: organism-based; conditions: in vivo, 336 h
[33] = Toxicity in BALB/c mouse xenografted with human HCT-116 cells assessed as change in serum AST level at 20 mg/kg,ip administrated for 2 weeks; format: organism-based; conditions: in vivo, 336 h
HCT-116 [34] = assay: Antitumor activity against human HCT-116 cells xenografted in BALB/c mouse assessed as downregulation of N-cad expression in tumor at 10 mg/kg,ip administrated for 2 weeks by Western blotting analysis; format: functional, organism-based
HCT-116 [35] = assay: Antitumor activity against human HCT-116 cells xenografted in BALB/c mouse assessed as downregulation of N-cad expression in tumor at 20 mg/kg,ip administrated for 2 weeks by Western blotting analysis; format: functional, organism-based
HCT-116 [36] = assay: Antitumor activity against human HCT-116 cells xenografted in BALB/c mouse assessed as downregulation of FAK expression in tumor at 20 mg/kg,ip administrated for 2 weeks by Western blotting analysis; format: functional, organism-based
HCT-116 [37] = assay: Antitumor activity against human HCT-116 cells xenografted in BALB/c mouse assessed as downregulation of FAK phosphorylation in tumor at 10 mg/kg,ip administrated for 2 weeks by Western blotting analysis; format: functional, organism-based
HCT-116 [38] = assay: Antitumor activity against human HCT-116 cells xenografted in BALB/c mouse assessed as downregulation of FGFR4 signalling pathway in tumor at 10 mg/kg,ip administrated for 2 weeks by Western blotting analysis; format: functional, organism-based
HCT-116 [39] = assay: Antitumor activity against human HCT-116 cells xenografted in BALB/c mouse assessed as decrease in FAK expression in tumor tissue at ip administrated for 2 weeks by immunohistochemical analysis; format: functional, organism-based
SW480 [40] = assay: cells; conditions: Homo sapiens, SW480, 48 h
Description: Antiproliferative activity against human SW480 cells assessed as inhibition of cell growth incubated for 48 hrs by MTT assay

RKO [41] = assay: cells; conditions: Homo sapiens, 48 h
Description: Antiproliferative activity against human RKO cells assessed as inhibition of cell growth incubated for 48 hrs by MTT assay

C=CC(=O)NCCCn1c(=O)c(-c2c(Cl)c(OC)cc(OC)c2Cl)cc2cnc(Nc3c(C)cccc3NC(=O)C=C)cc21 showed an IC50 at 48 h [1] of 23.8 µM, a pIC50 [2] of 6.19 and a pIC50 [3] of 6.28. For the same molecule, the pIC50 [4] was 6.65, the Activity (SW480 [5]) was “Dose-Dependent Effect” and the Activity (RKO [6]) was “Dose-Dependent Effect”. The Activity (HCT-116 [7]) was “Active”, the Activity (HCT-116 [8]) was “Active” and the Activity (SW480 [9]) was “Active”. For the same molecule, the Activity (RKO [10]) was “Active”, the Activity (RKO [11]) was “Active” and the Activity (HCT-116 [12]) was 0.64%. The Activity (HCT-116 [13]) was “Dose-Dependent Effect”, the Activity (HCT-116 [14]) was “inactive” and the Activity (HCT-116 [15]) was “inactive”. The Activity (SW480 [16]) was “inactive”, the Activity (RKO [17]) was “Active” and the Activity (RKO [18]) was “inactive”. For the same molecule, the Activity [19] was “Non-Toxic”, the Activity [20] was “Non-Toxic” and the Activity [21] was “Non-Toxic”. For the same molecule, the Activity [22] was “Non-Toxic”, the Activity [23] was “Non-Toxic” and the Activity [24] was “Non-Toxic”. The Activity [25] was “Non-Toxic”, the Activity [26] was “Non-Toxic” and the Activity [27] was “Non-Toxic”. For the same molecule, the Activity [28] was “Non-Toxic”, the Activity [29] was “Non-Toxic” and the Activity [30] was “Non-Toxic”. The Activity [31] was “Non-Toxic”, the Activity [32] was “Non-Toxic” and the Activity [33] was “Non-Toxic”. The Activity (HCT-116 [34]) was “Active”, the Activity (HCT-116 [35]) was “Active” and the Activity (HCT-116 [36]) was “Active”. The Activity (HCT-116 [37]) was “Active”, the Activity (HCT-116 [38]) was “Active” and the Activity (HCT-116 [39]) was “Dose-Dependent Effect”. The pIC50 (SW480 [40]) was 5.16 and the pIC50 (RKO [41]) was 4.94.
